Legend:
Type in all cases: in vivo, maize
ZEAMA Sileno [1] = test: Seed treatment with safener; post-emergence herbicide application; parameters: Reduction [Difference]: scale not given here; settings: Final assessment; for Reduction [%] / Reduction [Difference]: Cyprosulfamide 0.5 g a.i./kg seed; for Reduction [Difference]: damage without safener - damage with safener; for HER effect + SAF (crop damage with safener): Cyprosulfamide seed treatment 0.5 g a.i./kg seed; for HER effect (crop damage, herbicide without safener): no safener
Description: For the safener seed treatment, sufficient seeds of the respective crops (spring wheat, TRZAS; spring barley, HORVS; maize, ZEAMA) were weighed into screw top glass bottles approximately twice the volume of the seeds.
The specified safeners, formulated as wettable powder (WP) were weighed out so that the specified rates (g a.i./kg seed) would be obtained, dissolved in water (1 ml water per 10 g of seeds), and added to the seeds to produce a slurry.
The bottles were capped and then placed in an overhead shaker (set at medium speed for ca. 60 minutes) so that the seeds were evenly coated with the slurry. The bottles were uncapped and the seeds were either placed on paper and dried for an interval of 3-4 hours prior to sowing, or directly sown. Seeds were placed in sandy loam soil in pots of a diameter of 7-8 cm, covered with soil, and cultivated in a greenhouse under good growth conditions.
Post-emergence application of the specified herbicides was done when the plants had reached growth stage BBCH11-13, on two sets of plants:
a) seed treatment with safener, as described above b) no safener treatment
The herbicides were formulated as WP and sprayed onto the green parts of the plants as an aqueous suspension at an equivalent water application rate of 300 1/ha, with addition of wetting agent and adjuvants (e.g. Mero, 1.5 1/ha; ammonium sulphate, 2 kg/ha)
After application, the test plants were kept in the greenhouse under good growth conditions.
Values in the table below are mean values of at least 2 replicates.

ZEAMA Abraxas = test: Tank-mix; post-emergence, crop damage with and without safener; settings: for HER effect + SAF / HER effect: Final assessment; for HER effect: no safener
Description: (§1) Seeds of crops (spring wheat, TRZAS; spring barley, HORVS; maize, ZEAMA) were placed in sandy loam soil in peat pots, covered with soil and cultivated in a greenhouse under good growth conditions. Two to three weeks after sowing, the test plants were treated at the 1 to 3-leaf stage. The herbicide/safener active compound combinations according to the invention, formulated as wettable powders or emulsion concentrates, and, in parallel tests, the correspondingly formulated individual active compounds were sprayed onto the green parts of the plants in various dosages using an amount of water of 300 1/ha (converted).
(§2) The pots were returned under good growing conditions in a glasshouse and a visual assessment of herbicidal effects was made at intervals from 1 to 3 weeks after herbicide application (DAT = days after treatment). Assessment was on a percentage basis in comparison with untreated control plants (0% = no injury, 100% = complete kill).

ZEAMA Sileno [2] = test: as above; settings: for HER effect + SAF / HER effect: Final assessment; for HER effect: no safener
Description: as §1, §2

[3] = HER 8 g a.i./ha, cyprosulfamide 50 g a.i./ha
[4] = HER 32 g a.i./ha, cyprosulfamide 100 g a.i./ha
[5] = HER dose 8 g a.i./ha + cyprosulfamide 50 g a.i./ha tank-mix
[6] = HER dose 32 g a.i./ha + cyprosulfamide 100 g a.i./ha tank-mix
[7] = HER 2 g a.i./ha, cyprosulfamide 50 g a.i./ha

SMILES | Reduction [%] (ZEAMA Sileno [1]; HER dose 32 g a.i./ha) | Reduction [Difference] (ZEAMA Sileno [1]; HER dose 32 g a.i./ha) | HER effect + SAF (crop damage with safener) (ZEAMA Sileno [1]; HER dose 32 g a.i./ha) [%] | HER effect (crop damage, herbicide without safener) (ZEAMA Sileno [1]; HER dose 32 g a.i./ha) [%] | Reduction [%] (ZEAMA Abraxas; [3]) | Reduction [Difference] (ZEAMA Abraxas; [3]) | Reduction [%] (ZEAMA Abraxas; [4]) | Reduction [Difference] (ZEAMA Abraxas; [4]) | HER effect + SAF (ZEAMA Abraxas; [5]) [%] | HER effect (ZEAMA Abraxas; HER dose 8 g a.i./ha) [%] | HER effect + SAF (ZEAMA Abraxas; [6]) [%] | HER effect (ZEAMA Abraxas; HER dose 32 g a.i./ha) [%] | Reduction [%] (ZEAMA Sileno [1]; HER dose 8 g a.i./ha) | Reduction [Difference] (ZEAMA Sileno [1]; HER dose 8 g a.i./ha) | HER effect + SAF (crop damage with safener) (ZEAMA Sileno [1]; HER dose 8 g a.i./ha) [%] | HER effect (crop damage, herbicide without safener) (ZEAMA Sileno [1]; HER dose 8 g a.i./ha) [%] | further results
C=CC1(C(=O)NC2COC(C(=O)OC)C2)CC(c2cc(C)cc(F)c2)=NO1 (mixture of isomers) [Example 1.71] | 91 | 29 | 3 | 32 | 71 | 41 | 67 | 61 | 17 | 58 | 30 | 91 |  |  |  |  | 
C=CC1(C(=O)NC2C=C(C(=O)OCCOC)OC2)CC(c2cc(C)cc(F)c2)=NO1 (stereo not drawn) [Example 1.89] | 88 | 22 | 3 | 25 | 100 | 30 | 67 | 30 | 0 | 30 | 15 | 45 |  |  |  |  | 
CC1(C(=O)NC2C=CC(C(=O)OCCCl)C2)CC(c2cc(F)cc(F)c2)=NO1 (mixture of isomers) [Example 1.47] |  |  |  |  |  |  | 84 | 52 |  |  | 10 | 62 |  |  |  |  | 
CC1(C(=O)NC2COC(C(=O)OCc3cccc(F)c3)C2)CC(c2cc(F)cc(F)c2)=NO1 (mixture of isomers) [Example 1.76] | 74 | 20 | 7 | 27 | 74 | 67 | 26 | 25 | 23 | 90 | 70 | 95 | 100 | 22 | 0 | 22 | 
C=CC1(C(=O)NC2C=C(C(=O)OC)OC2)CC(c2cc(C)cc(C)c2)=NO1 (stereo not drawn) [Example 1.90] | 68 | 64 | 30 | 94 |  |  |  |  |  |  |  |  | 73 | 61 | 22 | 83 | Reduction [%] (ZEAMA Abraxas; [7]): 88%; Reduction [Difference] (ZEAMA Abraxas; [7]): 22; HER effect + SAF (ZEAMA Abraxas; HER dose 2 g a.i./ha + cyprosulfamide 50 g a.i./ha tank-mix): 3%; HER effect (ZEAMA Abraxas; HER dose 2 g a.i./ha): 25%
C=CC1(C(=O)NC2CC=C(C(=O)OC)C2)CC(c2cc(F)cc(F)c2)=NO1 (mixture of isomers) [Example 1.60] | 88 | 57 | 8 | 65 | 69 | 38 | 79 | 74 | 17 | 55 | 20 | 94 | 94 | 50 | 3 | 53 | 
C=CC1(C(=O)NC2C=CC(C(=O)O)C2)CC(c2cc(F)cc(F)c2)=NO1 (stereo not drawn) [Example 1.58] | 64 | 45 | 25 | 70 | 87 | 54 | 68 | 65 | 8 | 62 | 30 | 95 |  |  |  |  | Reduction [%] (ZEAMA Sileno [1]; HER dose 2 g a.i./ha): 100%; Reduction [Difference] (ZEAMA Sileno [1]; HER dose 2 g a.i./ha): 20; HER effect + SAF (crop damage with safener) (ZEAMA Sileno [1]; HER dose 2 g a.i./ha): 0%; HER effect (crop damage, herbicide without safener) (ZEAMA Sileno [1]; HER dose 2 g a.i./ha): 20%
CCOC(=O)C1C=CC(NC(=O)C2(C(F)(F)F)CC(c3ccccc3)=NO2)C1 (stereo not drawn) [Example 1.9] | 100 | 85 | 0 | 85 |  |  |  |  |  |  |  |  | 100 | 78 | 0 | 78 | Reduction [%] (ZEAMA Sileno [2]; [3]): 87%; Reduction [Difference] (ZEAMA Sileno [2]; [3]): 68; Reduction [%] (ZEAMA Sileno [2]; [4]): 59%; Reduction [Difference] (ZEAMA Sileno [2]; [4]): 50; HER effect + SAF (ZEAMA Sileno [2]; [5]): 10%; HER effect (ZEAMA Sileno [2]; HER dose 8 g a.i./ha): 78%; HER effect + SAF (ZEAMA Sileno [2]; [6]): 35%; HER effect (ZEAMA Sileno [2]; HER dose 32 g a.i./ha): 85%
C=CC1(C(=O)NC2COC(C(=O)OCc3ccc(OC)cc3)C2)CC(c2cc(C)cc(F)c2)=NO1 (mixture of isomers) [Example 1.86] |  |  |  |  | 84 | 27 |  |  | 5 | 32 |  |  |  |  |  |  | 
